pIC50: −log10 of the molar value. Activity calls are given as the source filed them. The calls are words filed in the database; no cut-off is given here.
Legend:
[1] = target: T1, RAC-alpha serine/threonine-protein kinase (Homo sapiens, UniProt P31749); experiment: Inhibition of PKB activation in human overnight starved MCF7 cells assessed as phosphorylated Akt at Ser473 level at 50 ug/ml after 1 hr followed by treated with 1 ug/mL of insulin for 15 mins by Western blotting
[2] = target: T1, RAC-alpha serine/threonine-protein kinase; experiment: Inhibition of PKB/Akt activation in human overnight starved MCF7 cells assessed as phosphorylated Akt at Ser473 level at 50 ug/ml after 1 hr followed by treated with 1 ug/mL of insulin for 15 mins by Western blotting; assay type: cell-based

T1 sequence (P31749 whole entry): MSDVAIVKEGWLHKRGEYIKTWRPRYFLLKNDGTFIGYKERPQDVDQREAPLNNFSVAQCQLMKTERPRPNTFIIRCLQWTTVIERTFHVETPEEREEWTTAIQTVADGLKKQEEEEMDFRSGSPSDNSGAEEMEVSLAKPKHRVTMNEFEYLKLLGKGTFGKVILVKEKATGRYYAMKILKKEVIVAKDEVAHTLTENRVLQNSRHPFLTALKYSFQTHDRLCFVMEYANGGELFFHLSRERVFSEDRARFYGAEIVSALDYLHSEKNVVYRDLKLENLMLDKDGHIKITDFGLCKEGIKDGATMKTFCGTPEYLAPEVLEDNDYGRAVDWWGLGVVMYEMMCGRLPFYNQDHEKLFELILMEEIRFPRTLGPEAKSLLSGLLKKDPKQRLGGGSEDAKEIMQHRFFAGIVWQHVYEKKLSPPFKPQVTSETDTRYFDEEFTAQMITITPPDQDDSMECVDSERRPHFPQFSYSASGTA

Row | Compound | inhibition of PKB activation (active/not active) [1] | pIC50 [2]
1 | CC(=O)Oc1ccccc1Cc1cc(CCCl)ccc1OC(C)=O | Active | –
2 | CCc1ccc(OC(C)=O)c(Cc2cc(CCCl)ccc2OC(C)=O)c1 | Active | 4.60
3 | CC(=O)Oc1ccccc1Cc1ccccc1OC(C)=O | inactive | –
4 | CCc1ccc(OC(C)=O)c(Cc2cc(CC)ccc2OC(C)=O)c1 | Active | –
5 | CCc1ccc(Cc2cc(CCCl)ccc2OC(C)=O)c(OC(C)=O)c1 | Active | –
6 | CCc1ccc(OC(C)=O)c(Cc2ccccc2OC(C)=O)c1 | inactive | –
